Key:
[1] = in vivo; cited from earlier work
[2] = transdermal patches; cited from earlier work
heart = settings: in vivo; cited from earlier work
dopaminergic neurons = settings: animals with induced brain injuries; cited from earlier work
[3] = cited from earlier work
[4] = system: release of dopamine and acetylcholine; settings: cited from earlier work
[5] = acutely- and chronically-administered; also observed in aged animals; cited from earlier work
[6] = system: nAChR evoked release of [3H]-dopamine, rat striatal slices; test: Striatal dopamine release assay (nAChR evoked release of [3H]-dopamine from superfused rat striatal slices); assay type: cell-based, rat (male Sprague-Dawley); settings: Table 1; example concentration * = 10 μM; relative to 100 nM (-)-nicotine
Description: The protocol for this procedure follows below.
A. Protocol for Determination of Striatal Dopamine Release.
nAChR evoked release of [ring-2,5,6-^3 H]-dopamine (24.4 Ci/mmol) was measured in superfused rat striatal slices. Striata were dissected from two male Sprague-Dawley rats per experiment and sliced 0.35×0.25 mm by a McIlwain Tissue Chopper (Brinkman Instrument Co., Westbury, N.Y.). After two washes with Krebs-HEPES buffer (137 mM NaCl, 4.7 mM KCl, 1 mM MgSO4, 2.5 mM CaCl2, 1.25 mM NaH2 PO4, 10 mM glucose, 15 mM HEPES-NaOH, pH 7.4, containing 10 μM pargyline and 10 μM ascorbic acid), slices were preincubated for 10 minutes at 37° C. under 95%/5% O2 /CO2. After replacing the buffer, slices were labeled with 100 nM [^3 H]-dopamine for 25 min in Krebs-HEPES at 37° C. Aliquots of slices were placed in 18 superfusion chambers of a Brandel SP2000 superfusion apparatus (Brandel, Gaithersberg, Md.). Following 47 minutes of washout, slices were exposed to agonist at various concentrations for 4 minutes. Antagonists or inhibitors, when present were introduced 4 minutes prior to and during agonist exposure. Collected fractions were counted in 5 mL of Ecolume. Tissue was recovered from superfusion chambers, solubilized with 1 mL of Solvable™ (DuPont-NEN) and counted in 15 mL of Ecolume. Fractional release of [^3 H]-dopamine was calculated from radioactivity above baseline as a fraction of total radioactivity.

[7] = molecular target: neuronal nicotinic cholinergic channel receptors; test: [3H]-cytisine displacement binding to neuronal nicotinic cholinergic channel receptors; assay type: rat (crude synaptic membranes from whole rat brain); settings: Table 1; [3H]-cytisine 1.25 nM, 60 min at 4° C.; read-out: Receptor Binding Ki
[8] = system: cholinergic ligand-gated channels, PC12 cells; test: Cholinergic channel activation in PC12 cells (whole-cell patch-clamp); assay type: cell-based
From the text: D. Protocols for the Determination of Cholinergic Channel Activation in PC12 Cells.
The cholinergic channel activator properties of Example 9 were investigated in PC12 cells using the whole-cell patch-clamp approach to measure current flow through ligand-gated membrane channels.

| SMILES | sensory-gating impairments [1] | symptoms of ADD [2] | cardiac workload and oxygen demand (heart) | pre-synaptic loss of functional dopaminergic neurons (dopaminergic neurons) | oral bioavailability [3] | release of dopamine and acetylcholine [4] | cognitive function [5] | Dopamine Release relative to Nicotine [6] | Ki [7] [pM] | cholinergic channel activator properties (current flow through ligand-gated channels) [8] |
| --- | --- | --- | --- | --- | --- | --- | --- | --- | --- | --- |
| CN1CCCC1c1cccnc1 (single isomer, unassigned; (-)) [(-)-nicotine] | normalize sensory-gating impairments | improve the symptoms of ADD | increasing cardiac workload and oxygen demand | can prevent pre-synaptic loss of functional dopaminergic neurons | poor oral bioavailability | enhance the release of dopamine and acetylcholine | enhances cognitive function in rats |  |  |  |
| Cl.Cl.c1cncc(OC[C@@H]2CCN2)c1 [Example 9, 3-(2-(S)-azetidinylmethoxy)pyridine dihydrochloride] |  |  |  |  |  |  |  | 1.0 | 50 | clear agonist activity |

Reference: US5948793A, “3-pyridyloxymethyl heterocyclic ether compounds useful in controlling neurotransmitter release” (Abbott Laboratories, priority 1995, dated 1999)
